Reference: publication PMC1968759, “Biological effects of stable overexpression of aromatase in human hormone-dependent breast cancer cells” (British Journal of Cancer, 1994)

Tests used:
aromatase = biological target: T1, aromatase (Homo sapiens, UniProt P11511); test: cell-based
T1 construct: gene CYP19A1; human placental aromatase cDNA (nucleotides 16-1539) stably expressed in MCF-7 cells (clone Arom. 1)
T1 sequence (P11511 1-503): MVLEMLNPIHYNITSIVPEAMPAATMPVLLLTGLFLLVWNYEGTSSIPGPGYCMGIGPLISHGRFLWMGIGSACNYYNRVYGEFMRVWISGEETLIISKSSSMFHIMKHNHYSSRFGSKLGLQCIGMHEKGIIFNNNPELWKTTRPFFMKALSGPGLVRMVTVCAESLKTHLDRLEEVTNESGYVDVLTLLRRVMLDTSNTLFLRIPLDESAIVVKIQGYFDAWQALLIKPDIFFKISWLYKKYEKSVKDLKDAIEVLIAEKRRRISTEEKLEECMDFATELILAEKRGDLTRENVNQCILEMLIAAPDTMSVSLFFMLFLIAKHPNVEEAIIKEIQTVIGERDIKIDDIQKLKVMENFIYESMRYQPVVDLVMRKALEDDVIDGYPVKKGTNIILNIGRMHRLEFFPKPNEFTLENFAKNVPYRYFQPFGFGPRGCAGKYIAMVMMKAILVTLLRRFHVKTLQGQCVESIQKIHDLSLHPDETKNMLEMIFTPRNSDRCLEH

[1] = substrate: C[C@]12CCC(=O)C=C1CC[C@@H]1[C@@H]2CC[C@]2(C)C(=O)CC[C@@H]12; test: cells, lysate or membranes

C[C@]12CCC(=O)C(O)=C1CC[C@@H]1[C@@H]2CC[C@]2(C)C(=O)CC[C@@H]12 [4-hydroxyandrostenedione]
IC50 (aromatase): 70 nM

B1: aromatase (Homo sapiens) (protein)
chain: T1 sequence (P11511 1-503)
Km [1]: 0.07 µM
